Results on four compounds are retold here after ChEMBL document CHEMBL3813616, “Discovery of novel 7-azaindoles as PDK1 inhibitors” (Bioorg Med Chem Lett, 2016).

Design in all cases: scale not given: the % may be the effect or the level left
Experiment [1] addresses Tyrosine-protein kinase Lck (Homo sapiens) (UniProt P06239). As to the kind of experiment: Inhibition of human LCK (2 to 509 residues) assessed as enzyme activity at 1 uM using 33P ATP by radioactive filter binding assay.
Experiment [2] deals with Serine/threonine-protein kinase 26 (Homo sapiens) (UniProt Q9P289). As to the kind of experiment: Inhibition of human MST4 (1 to 416 residues) assessed as enzyme activity at 1 uM using 33P ATP by radioactive filter binding assay.
For experiment [3], the target named is Serine/threonine-protein kinase PAK 5 (Homo sapiens) (UniProt Q9P286). As to the kind of experiment: Inhibition of human PAK5 (2 to 719 residues) assessed as enzyme activity at 1 uM using 33P ATP by radioactive filter binding assay.
Experiment [4] addresses T1, Lymphokine-activated killer T-cell-originated protein kinase (Homo sapiens) (UniProt Q96KB5).
T1 sequence (whole entry): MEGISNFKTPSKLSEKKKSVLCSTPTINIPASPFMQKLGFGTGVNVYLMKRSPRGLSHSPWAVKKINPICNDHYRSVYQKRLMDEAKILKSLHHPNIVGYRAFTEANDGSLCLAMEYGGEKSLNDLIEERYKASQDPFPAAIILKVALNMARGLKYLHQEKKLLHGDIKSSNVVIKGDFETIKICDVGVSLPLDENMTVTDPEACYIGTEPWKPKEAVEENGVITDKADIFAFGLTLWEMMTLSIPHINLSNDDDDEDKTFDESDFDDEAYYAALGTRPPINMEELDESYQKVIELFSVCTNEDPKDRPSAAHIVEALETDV
As to the kind of experiment: Inhibition of human PBK (2 to 297 residues) assessed as enzyme activity at 1 uM using 33P ATP by radioactive filter binding assay.

Experiment [5] concerns the target cAMP-dependent protein kinase catalytic subunit alpha (Homo sapiens) (UniProt P17612). In words: Inhibition of human PKA alpha (2 to 351 residues) assessed as enzyme activity at 1 uM using 33P ATP by radioactive filter binding assay.
Experiment [6] deals with RAC-alpha serine/threonine-protein kinase (Homo sapiens) (UniProt P31749). In words: Inhibition of human PKBalpha (118 to 480 residues) assessed as enzyme activity at 1 uM using 33P ATP by radioactive filter binding assay.
The target of experiment [7] is T2, Mitogen-activated protein kinase 12 (Homo sapiens) (UniProt P53778).
T2 sequence (whole entry): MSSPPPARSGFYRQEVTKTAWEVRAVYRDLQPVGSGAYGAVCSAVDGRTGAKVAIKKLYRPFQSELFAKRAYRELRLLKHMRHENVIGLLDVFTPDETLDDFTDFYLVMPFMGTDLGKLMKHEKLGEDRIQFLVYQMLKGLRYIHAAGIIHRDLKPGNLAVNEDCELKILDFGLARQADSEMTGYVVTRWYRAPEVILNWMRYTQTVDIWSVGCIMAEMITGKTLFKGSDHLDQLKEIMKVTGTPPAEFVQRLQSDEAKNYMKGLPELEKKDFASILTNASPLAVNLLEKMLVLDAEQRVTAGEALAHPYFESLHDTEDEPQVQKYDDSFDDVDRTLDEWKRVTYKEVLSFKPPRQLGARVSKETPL
As to the kind of experiment: Inhibition of SAPK3 (unknown origin) assessed as enzyme activity at 1 uM using 33P ATP by radioactive filter binding assay.

Experiment [8] deals with Proto-oncogene tyrosine-protein kinase Src (Homo sapiens) (UniProt P12931). As to the kind of experiment: Inhibition of human SRC (1 to 536 residues) assessed as enzyme activity at 1 uM using 33P ATP by radioactive filter binding assay.
In experiment [9] the target is Tyrosine-protein kinase Yes (Homo sapiens) (UniProt P07947). In words: Inhibition of human YES1 (1 to 543 residues) assessed as enzyme activity at 1 uM using 33P ATP by radioactive filter binding assay.
Experiment [10] deals with Calcium/calmodulin-dependent protein kinase kinase 2 (Homo sapiens) (UniProt Q96RR4). In words: Inhibition of human CAMKKb (1 to 541 residues) assessed as enzyme activity at 1 uM using 33P ATP by radioactive filter binding assay.
Experiment [11] addresses T3, Dual specificity tyrosine-phosphorylation-regulated kinase 3 (Homo sapiens) (UniProt O43781).
T3 sequence (whole entry): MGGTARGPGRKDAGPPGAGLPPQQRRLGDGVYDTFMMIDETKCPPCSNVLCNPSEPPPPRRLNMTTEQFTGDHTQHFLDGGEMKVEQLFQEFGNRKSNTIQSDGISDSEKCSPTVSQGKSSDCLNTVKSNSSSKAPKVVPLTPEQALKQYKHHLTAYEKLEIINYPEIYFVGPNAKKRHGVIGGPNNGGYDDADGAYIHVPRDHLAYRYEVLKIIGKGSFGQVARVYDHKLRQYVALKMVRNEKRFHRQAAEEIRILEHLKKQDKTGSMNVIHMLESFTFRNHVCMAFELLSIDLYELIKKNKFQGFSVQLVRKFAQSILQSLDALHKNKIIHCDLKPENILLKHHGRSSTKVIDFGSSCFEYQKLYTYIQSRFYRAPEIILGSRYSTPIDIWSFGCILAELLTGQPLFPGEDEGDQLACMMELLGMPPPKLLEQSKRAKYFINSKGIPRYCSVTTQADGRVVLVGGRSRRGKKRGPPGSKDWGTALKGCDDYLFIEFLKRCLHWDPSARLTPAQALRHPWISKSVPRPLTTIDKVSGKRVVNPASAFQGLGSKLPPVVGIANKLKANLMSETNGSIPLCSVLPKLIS
In words: Inhibition of human DYRK3 (1 to 588 residues) assessed as enzyme activity at 1 uM using 33P ATP by radioactive filter binding assay.

For experiment [12], the target named is Ephrin type-A receptor 2 (Homo sapiens) (UniProt P29317). As to the kind of experiment: Inhibition of human EPHA2 (591 to 976 residues) assessed as enzyme activity at 1 uM using 33P ATP by radioactive filter binding assay.
Ephrin type-A receptor 2 (Homo sapiens), sequence (P29317 whole entry, the tested form may be a part): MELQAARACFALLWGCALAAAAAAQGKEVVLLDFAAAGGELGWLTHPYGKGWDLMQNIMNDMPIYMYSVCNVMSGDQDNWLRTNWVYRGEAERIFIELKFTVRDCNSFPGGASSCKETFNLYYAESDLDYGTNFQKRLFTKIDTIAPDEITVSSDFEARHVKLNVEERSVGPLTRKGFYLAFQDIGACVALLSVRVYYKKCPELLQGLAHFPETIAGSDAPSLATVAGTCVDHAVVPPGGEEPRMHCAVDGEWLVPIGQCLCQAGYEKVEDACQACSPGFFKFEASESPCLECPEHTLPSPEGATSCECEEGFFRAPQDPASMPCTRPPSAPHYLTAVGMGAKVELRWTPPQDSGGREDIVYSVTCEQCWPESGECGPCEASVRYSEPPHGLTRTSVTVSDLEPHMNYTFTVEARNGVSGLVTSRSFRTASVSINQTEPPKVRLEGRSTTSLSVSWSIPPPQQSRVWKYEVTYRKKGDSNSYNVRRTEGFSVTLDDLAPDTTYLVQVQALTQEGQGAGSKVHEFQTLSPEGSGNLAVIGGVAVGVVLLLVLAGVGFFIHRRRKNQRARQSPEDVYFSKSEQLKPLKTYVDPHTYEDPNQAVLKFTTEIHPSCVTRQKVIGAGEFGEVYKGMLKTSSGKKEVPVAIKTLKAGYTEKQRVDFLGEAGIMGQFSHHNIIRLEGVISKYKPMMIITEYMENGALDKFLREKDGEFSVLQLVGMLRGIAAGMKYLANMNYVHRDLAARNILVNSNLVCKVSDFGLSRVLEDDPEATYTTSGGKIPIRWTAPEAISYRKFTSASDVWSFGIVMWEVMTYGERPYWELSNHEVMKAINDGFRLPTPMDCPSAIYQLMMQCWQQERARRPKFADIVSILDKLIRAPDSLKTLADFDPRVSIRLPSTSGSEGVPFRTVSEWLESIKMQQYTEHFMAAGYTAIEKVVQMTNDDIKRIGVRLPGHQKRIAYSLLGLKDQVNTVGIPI

Tyrosine-protein kinase Lck (Homo sapiens), sequence (P06239 2-509 limits assumed): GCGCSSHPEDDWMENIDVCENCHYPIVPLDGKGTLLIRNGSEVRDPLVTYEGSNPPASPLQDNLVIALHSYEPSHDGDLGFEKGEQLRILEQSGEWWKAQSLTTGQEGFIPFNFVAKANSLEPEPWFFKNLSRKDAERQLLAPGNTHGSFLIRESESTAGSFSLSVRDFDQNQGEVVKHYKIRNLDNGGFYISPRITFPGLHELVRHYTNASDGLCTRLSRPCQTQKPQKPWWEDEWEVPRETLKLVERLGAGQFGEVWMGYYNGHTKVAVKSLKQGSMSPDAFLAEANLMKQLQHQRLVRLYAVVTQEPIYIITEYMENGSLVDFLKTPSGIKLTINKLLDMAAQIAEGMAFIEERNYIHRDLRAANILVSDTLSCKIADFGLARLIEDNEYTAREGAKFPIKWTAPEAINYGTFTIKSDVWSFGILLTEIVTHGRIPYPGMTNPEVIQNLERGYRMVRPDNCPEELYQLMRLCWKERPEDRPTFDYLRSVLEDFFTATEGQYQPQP
RAC-alpha serine/threonine-protein kinase (Homo sapiens), sequence (P31749 whole entry, the tested form may be a part): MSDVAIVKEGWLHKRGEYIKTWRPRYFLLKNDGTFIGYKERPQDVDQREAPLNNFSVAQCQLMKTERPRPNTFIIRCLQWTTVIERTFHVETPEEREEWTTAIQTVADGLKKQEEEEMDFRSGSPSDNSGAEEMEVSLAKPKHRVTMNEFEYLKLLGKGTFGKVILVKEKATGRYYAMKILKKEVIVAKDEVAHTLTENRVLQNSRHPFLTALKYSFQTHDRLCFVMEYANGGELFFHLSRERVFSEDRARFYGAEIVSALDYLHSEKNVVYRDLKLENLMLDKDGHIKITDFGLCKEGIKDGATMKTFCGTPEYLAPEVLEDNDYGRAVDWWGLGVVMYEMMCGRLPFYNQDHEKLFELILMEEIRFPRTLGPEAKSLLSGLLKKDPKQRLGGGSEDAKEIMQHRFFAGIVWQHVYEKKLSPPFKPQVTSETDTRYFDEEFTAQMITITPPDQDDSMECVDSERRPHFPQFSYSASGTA
Tyrosine-protein kinase Yes (Homo sapiens), sequence (P07947 2-543 limits assumed): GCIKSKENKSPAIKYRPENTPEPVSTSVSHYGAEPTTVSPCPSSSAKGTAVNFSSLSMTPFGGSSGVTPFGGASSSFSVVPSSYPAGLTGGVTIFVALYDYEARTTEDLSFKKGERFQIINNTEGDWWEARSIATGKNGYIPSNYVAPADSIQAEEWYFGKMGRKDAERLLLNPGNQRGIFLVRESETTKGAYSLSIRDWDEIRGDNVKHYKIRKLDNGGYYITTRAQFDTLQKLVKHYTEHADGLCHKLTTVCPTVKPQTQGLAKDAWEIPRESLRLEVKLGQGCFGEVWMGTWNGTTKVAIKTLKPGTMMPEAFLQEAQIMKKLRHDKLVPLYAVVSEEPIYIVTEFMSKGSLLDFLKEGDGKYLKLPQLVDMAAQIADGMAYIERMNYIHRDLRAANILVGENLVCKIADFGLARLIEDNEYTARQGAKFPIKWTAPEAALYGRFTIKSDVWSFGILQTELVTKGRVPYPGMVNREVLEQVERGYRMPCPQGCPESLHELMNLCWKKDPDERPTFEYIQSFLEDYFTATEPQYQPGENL
Serine/threonine-protein kinase PAK 5 (Homo sapiens), sequence (Q9P286 whole entry, looked up, the tested form may be a part): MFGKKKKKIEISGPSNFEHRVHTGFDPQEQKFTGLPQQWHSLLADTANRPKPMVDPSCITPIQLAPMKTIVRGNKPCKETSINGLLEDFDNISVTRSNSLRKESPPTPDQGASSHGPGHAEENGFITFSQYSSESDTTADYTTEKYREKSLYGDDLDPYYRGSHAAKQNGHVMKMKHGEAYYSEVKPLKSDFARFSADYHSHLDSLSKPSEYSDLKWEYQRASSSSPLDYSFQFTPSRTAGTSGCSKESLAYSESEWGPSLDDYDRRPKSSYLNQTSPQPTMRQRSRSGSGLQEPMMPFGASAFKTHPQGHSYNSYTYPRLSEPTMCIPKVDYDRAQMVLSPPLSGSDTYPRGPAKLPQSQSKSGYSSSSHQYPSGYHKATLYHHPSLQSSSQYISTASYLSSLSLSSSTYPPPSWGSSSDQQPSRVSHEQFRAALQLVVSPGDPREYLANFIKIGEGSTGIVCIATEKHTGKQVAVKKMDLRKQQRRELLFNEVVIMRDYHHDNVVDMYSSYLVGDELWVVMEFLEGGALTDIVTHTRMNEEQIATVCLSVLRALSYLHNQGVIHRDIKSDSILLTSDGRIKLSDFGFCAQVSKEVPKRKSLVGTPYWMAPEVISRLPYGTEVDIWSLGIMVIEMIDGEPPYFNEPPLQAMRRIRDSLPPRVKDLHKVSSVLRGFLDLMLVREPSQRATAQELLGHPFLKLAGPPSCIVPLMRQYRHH
Serine/threonine-protein kinase 26 (Homo sapiens), sequence (Q9P289 2-416 limits assumed): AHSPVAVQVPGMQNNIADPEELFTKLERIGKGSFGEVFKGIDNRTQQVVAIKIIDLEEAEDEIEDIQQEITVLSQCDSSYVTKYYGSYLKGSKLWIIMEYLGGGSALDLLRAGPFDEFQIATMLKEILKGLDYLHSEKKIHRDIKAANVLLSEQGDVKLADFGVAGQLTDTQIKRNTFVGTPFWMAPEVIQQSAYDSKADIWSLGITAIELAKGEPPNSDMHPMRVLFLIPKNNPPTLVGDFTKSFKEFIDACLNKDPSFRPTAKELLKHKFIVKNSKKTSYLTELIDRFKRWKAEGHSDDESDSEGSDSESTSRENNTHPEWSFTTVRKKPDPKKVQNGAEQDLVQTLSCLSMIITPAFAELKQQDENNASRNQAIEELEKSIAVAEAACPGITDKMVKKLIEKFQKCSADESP
Calcium/calmodulin-dependent protein kinase kinase 2 (Homo sapiens), sequence (Q96RR4 2-588 limits assumed): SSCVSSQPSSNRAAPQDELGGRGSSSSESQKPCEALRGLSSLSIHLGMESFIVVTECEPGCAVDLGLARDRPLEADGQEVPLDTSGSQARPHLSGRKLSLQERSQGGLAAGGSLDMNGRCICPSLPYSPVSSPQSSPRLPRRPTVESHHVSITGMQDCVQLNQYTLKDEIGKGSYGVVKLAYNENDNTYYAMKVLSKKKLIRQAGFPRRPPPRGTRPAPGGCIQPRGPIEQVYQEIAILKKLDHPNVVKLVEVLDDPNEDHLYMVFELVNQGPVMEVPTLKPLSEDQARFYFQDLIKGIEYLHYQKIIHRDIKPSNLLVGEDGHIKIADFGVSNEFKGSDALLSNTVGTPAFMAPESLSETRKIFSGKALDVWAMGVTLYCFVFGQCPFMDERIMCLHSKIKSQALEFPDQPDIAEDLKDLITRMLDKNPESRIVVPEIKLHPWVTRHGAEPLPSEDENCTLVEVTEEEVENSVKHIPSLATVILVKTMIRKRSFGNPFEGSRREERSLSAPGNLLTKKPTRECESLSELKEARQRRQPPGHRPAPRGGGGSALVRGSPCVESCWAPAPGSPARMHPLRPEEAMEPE
Proto-oncogene tyrosine-protein kinase Src (Homo sapiens), sequence (P12931 2-536 limits assumed): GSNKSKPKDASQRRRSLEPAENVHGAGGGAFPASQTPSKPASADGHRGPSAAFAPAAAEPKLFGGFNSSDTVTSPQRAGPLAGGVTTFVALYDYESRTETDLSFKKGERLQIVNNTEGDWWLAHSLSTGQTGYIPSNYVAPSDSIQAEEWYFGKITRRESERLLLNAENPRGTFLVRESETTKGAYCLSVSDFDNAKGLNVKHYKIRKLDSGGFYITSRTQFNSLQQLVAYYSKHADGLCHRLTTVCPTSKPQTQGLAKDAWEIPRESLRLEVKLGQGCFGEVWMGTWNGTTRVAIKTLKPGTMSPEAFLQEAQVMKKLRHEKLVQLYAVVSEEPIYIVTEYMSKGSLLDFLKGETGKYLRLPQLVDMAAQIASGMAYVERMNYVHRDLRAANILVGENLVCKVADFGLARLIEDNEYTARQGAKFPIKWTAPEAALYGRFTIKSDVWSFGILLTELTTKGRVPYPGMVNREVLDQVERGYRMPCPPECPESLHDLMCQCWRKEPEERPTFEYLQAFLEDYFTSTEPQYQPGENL

In the case of `CCCCc1cc(-c2c[nH]c3ncc(-c4cnn(C5CCNCC5)c4)cc23)nc(N)n1`, the Activity was -99% in experiment [1]; -40% in experiment [2]; -38% in experiment [3]; -96% in [4]; -42% in experiment [5]; -9% in [6]. Moreover, the Activity in experiment [7] is -42%; in experiment [8], -68%; in experiment [9], -78%; in experiment [10] it was -86%; in experiment [11], -84%; in [12], -53%.

Regarding `Nc1nccc(-c2c[nH]c3ncccc23)n1` [MERIOLIN 1], the Activity in experiment [1] is -9%; in [2] it was -9%; in experiment [3] it was -30%; in [4], -40%; in [5], -66%; in experiment [6], -23%. The Activity in [7] is -59%; in experiment [8] it was -11%; in experiment [9], 2%; in experiment [10] it was -31%; in experiment [11] it was -82%; in experiment [12], 25%.

For `CCCCc1cc(-c2c[nH]c3ncccc23)nc(N)n1`, the Activity in experiment [1] is -5%; in experiment [2], -4%; in experiment [3], 6%; in experiment [4], -21%; in experiment [5] it was -54%; in experiment [6] it was -23%. Also, the Activity in [7] was -57%; in experiment [8] it was 7%; in [9], -21%; in experiment [10], -2%; in experiment [11], -80%; in experiment [12], 17%.

`CCc1cc(-c2c[nH]c3ncc(-c4cnn(C5CCNCC5)c4)cc23)nc(N)n1`: the Activity in experiment [1] was -95%; in [2], -49%; in experiment [3], 200%; in experiment [4] it was -95%; in experiment [5], -38%; in experiment [6] it was -10%. Further, the Activity is -45% in experiment [7]; -34% in experiment [8]; -46% in experiment [9]; -58% in [10]; -87% in experiment [11]; -16% in experiment [12].
